From patent US20250346616A1 (DIZAL (JIANGSU) PHARMACEUTICAL CO., LTD., priority 2022, published 2025)

Tests used:
Recombinant ROCK1 = Recombinant ROCK1 (Homo sapiens (Human), UniProt Q13464); assay: Lance Ultra Kinase Assay, ROCK1 inhibition; format: biochemical; details: ATP at Km, 30 min pre-incubation, 1 h reaction
Experimental: The inhibition potency of compounds against these enzymes was assessed using Lance Ultra Kinase Assay. In brief, recombinant kinases were pre-incubated in the presence or absence of compound at room temperature for 30 minutes. The reaction was initiated by the addition of the ATP (Km) and substrate peptide which could be phosphorylated by kinases in the reaction. After 1 h incubation, the reaction was stopped by the addition of the detection reagent mix containing EDTA. The fluorescence was measured at 615 nm and 665 nm, respectively with excitation wavelength at 320 nm. The calculated signal ratio of 665 nm/615 nm is proportional to the kinase activity.

Recombinant ROCK2 = Recombinant ROCK2 (Homo sapiens (Human), UniProt O75116); assay: Lance Ultra Kinase Assay, ROCK2 inhibition; format: biochemical; details: ATP at Km, 30 min pre-incubation, 1 h reaction
Chain of Recombinant ROCK2 (O75116 whole entry): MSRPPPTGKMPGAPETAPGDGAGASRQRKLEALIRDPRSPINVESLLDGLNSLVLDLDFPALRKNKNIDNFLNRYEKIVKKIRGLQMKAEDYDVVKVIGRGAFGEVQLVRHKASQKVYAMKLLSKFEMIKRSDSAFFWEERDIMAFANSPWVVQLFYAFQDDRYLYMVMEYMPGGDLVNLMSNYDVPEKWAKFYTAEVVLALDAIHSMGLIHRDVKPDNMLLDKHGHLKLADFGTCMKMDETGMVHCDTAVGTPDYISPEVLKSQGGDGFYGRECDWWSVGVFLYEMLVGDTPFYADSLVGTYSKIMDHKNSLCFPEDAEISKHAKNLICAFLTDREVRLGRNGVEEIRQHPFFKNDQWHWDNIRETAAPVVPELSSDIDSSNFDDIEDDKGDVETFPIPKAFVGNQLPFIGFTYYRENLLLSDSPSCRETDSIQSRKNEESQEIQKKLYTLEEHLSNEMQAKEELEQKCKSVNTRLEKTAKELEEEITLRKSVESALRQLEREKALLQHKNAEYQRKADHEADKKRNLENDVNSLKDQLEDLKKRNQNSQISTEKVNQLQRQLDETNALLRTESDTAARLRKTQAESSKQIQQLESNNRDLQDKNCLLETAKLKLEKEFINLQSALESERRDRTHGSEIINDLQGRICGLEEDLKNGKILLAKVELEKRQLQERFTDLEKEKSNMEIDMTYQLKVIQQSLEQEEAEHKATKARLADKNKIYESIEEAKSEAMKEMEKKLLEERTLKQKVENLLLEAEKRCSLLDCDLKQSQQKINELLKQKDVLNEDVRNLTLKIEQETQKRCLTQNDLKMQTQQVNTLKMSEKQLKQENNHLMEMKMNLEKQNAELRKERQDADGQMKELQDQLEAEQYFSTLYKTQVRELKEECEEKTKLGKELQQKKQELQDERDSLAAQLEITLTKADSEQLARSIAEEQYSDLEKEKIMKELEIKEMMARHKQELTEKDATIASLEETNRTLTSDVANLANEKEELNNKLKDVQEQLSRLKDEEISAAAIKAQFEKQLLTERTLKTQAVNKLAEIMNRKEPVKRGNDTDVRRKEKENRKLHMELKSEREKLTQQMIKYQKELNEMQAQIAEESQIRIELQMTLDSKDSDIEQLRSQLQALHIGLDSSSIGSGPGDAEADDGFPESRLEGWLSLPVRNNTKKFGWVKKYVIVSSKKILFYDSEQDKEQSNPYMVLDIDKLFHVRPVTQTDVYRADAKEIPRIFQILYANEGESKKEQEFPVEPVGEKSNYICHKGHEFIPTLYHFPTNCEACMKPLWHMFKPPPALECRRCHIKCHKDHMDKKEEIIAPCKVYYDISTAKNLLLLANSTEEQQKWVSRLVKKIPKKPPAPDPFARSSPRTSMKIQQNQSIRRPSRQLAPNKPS

Chain of Recombinant ROCK1 (Q13464 whole entry): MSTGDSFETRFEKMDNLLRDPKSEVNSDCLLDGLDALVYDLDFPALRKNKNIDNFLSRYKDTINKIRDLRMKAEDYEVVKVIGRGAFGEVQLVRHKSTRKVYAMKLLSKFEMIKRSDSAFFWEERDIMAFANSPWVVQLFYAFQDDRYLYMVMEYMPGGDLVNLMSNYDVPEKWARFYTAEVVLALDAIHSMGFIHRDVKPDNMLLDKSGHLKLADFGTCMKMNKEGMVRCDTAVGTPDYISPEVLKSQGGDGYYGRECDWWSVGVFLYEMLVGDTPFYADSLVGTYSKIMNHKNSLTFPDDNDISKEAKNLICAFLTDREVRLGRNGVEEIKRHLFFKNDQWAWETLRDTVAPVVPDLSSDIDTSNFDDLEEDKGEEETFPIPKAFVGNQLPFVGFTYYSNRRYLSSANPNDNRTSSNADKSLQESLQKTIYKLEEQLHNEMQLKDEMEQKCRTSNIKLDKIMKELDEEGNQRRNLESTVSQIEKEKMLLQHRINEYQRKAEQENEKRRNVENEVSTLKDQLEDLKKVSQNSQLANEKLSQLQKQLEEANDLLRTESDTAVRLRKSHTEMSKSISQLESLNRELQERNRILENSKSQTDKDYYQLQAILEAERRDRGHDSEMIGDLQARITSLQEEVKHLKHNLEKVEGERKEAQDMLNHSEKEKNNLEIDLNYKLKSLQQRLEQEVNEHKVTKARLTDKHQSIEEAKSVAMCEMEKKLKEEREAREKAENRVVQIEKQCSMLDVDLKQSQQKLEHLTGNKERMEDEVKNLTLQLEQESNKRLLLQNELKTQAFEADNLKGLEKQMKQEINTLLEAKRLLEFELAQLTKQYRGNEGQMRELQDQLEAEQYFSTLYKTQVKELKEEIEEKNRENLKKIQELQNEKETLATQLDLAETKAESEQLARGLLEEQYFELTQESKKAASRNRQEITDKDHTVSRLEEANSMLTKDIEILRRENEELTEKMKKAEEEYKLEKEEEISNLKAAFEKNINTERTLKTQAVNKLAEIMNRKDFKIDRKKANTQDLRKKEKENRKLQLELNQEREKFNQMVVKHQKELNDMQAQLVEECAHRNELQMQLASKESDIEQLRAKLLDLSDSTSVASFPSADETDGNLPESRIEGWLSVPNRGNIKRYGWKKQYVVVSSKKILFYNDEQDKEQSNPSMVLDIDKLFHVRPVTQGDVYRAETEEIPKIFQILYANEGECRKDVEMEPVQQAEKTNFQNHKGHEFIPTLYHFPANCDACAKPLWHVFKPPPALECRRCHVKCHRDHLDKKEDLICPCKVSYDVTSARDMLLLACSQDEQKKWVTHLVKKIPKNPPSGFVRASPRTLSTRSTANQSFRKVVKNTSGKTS

SMILES | IC50 (Recombinant ROCK1) [nM] | IC50 (Recombinant ROCK2) [nM]
NCC(C(=O)Nc1cccc2c(-c3cn[nH]c3)c[nH]c12)c1cccc(O)c1 (single isomer, unassigned) [Example 65, N-(3-(1H-pyrazol-4-yl)-1H-indol-7-yl)-3-amino-2-(3-hydroxyphenyl)propanamide] | 4.4 | 2.5
CN(C)C(=O)c1ccc(C(CN)C(=O)Nc2cccc3c(-c4cn[nH]c4)c[nH]c23)cc1 (racemic) [Example 72, 4-(2-amino-1-{[3-(1H-pyrazol-4-yl)-1H-indol-7-yl]carbamoyl}ethyl)-N,N-dimethylbenzamide] | 173 | 67
NC(C(=O)Nc1cccc2c(-c3cn[nH]c3)c[nH]c12)C1CCCCC1 (racemic) [Example 122, N-(3-(1H-pyrazol-4-yl)-1H-indol-7-yl)-2-amino-2-cyclohexylacetamide] | 11 | 8.9
NCC(C(=O)Nc1cccc2c(-c3cn[nH]c3)c[nH]c12)c1ccc(F)cc1 (racemic) [Example 85, 3-amino-2-(4-fluorophenyl)-N-[3-(1H-pyrazol-4-yl)-1H-indol-7-yl]propanamide] | 0.81 | 0.52
CP(C)(=O)c1cccc(C(CN)NC(=O)c2cccc3c(-c4cn[nH]c4)c[nH]c23)c1 (racemic) [Example 151, (rac)-N-{2-amino-1-[3-(dimethylphosphoryl)phenyl]ethyl}-3-(1H-pyrazol-4-yl)-1H-indole-7-carboxamide] | 204 | 71
NCC(C(=O)Nc1cccc2c(-c3cn[nH]c3)c[nH]c12)C1CCOC1 (racemic) [Example 96, N-(3-(1H-pyrazol-4-yl)-1H-indol-7-yl)-3-amino-2-(tetrahydrofuran-3-yl)propanamide] | 7.3 | 4
Cc1ccc(C(=O)OCc2ccc(C(CN)C(=O)Nc3cccc4c(-c5cn[nH]c5)c[nH]c34)cc2)c(C)c1 (single isomer, unassigned) [Example 6] | 442 | 247
COc1cccc(C(CN2CCN(C)CC2)NC(=O)c2cccc3c(-c4cn[nH]c4)c[nH]c23)c1 (single isomer, unassigned) [Example 138, N-(1-(3-methoxyphenyl)-2-(4-methylpiperazin-1-yl)ethyl)-3-(1H-pyrazol-4-yl)-1H-indole-7-carboxamide] | 73 | 23
Cc1cncc(C(CN)C(=O)Nc2cccc3c(-c4cn[nH]c4)c[nH]c23)c1 (single isomer, unassigned) [Example 62, N-(3-(1H-pyrazol-4-yl)-1H-indol-7-yl)-3-amino-2-(5-methylpyridin-3-yl)propanamide] | 68 | 31
NCC(C(=O)Nc1cccc2c(-c3cn[nH]c3)c[nH]c12)c1ccc(C(=O)O)cc1 (racemic) [Example 71, 4-(2-amino-1-{[3-(1H-pyrazol-4-yl)-1H-indol-7-yl]carbamoyl}ethyl)benzoic acid] | 227 | 64
CN1CCN(C(C(=O)Nc2cccc3c(-c4cn[nH]c4)c[nH]c23)c2ccccc2)CC1 (single isomer, unassigned) [Example 48, N-(3-(1H-pyrazol-4-yl)-1H-indol-7-yl)-2-(4-methylpiperazin-1-yl)-2-phenylacetamide] | 1.6 | 0.84
CN1CCC(C(NC(=O)c2cccc3c(-c4cn[nH]c4)c[nH]c23)C2CCCCC2)CC1 (racemic) [Example 143, N-[cyclohexyl (1-methylpiperidin-4-yl)methyl]-3-(1H-pyrazol-4-yl)-1H-indole-7-carboxamide] | 397 | 315
NCC(C(=O)Nc1cccc2c(-c3cn[nH]c3)c[nH]c12)C1CCOCC1 (single isomer, unassigned) [Example 27, N-(3-(1H-pyrazol-4-yl)-1H-indol-7-yl)-3-amino-2-(tetrahydro-2H-pyran-4-yl)propanamide] | 87 | 66
Cn1ccc(C(CN)C(=O)Nc2cccc3c(-c4cn[nH]c4)c[nH]c23)cc1=O (racemic) [Example 103, 3-amino-2-(1-methyl-2-oxopyridin-4-yl)-N-[3-(1H-pyrazol-4-yl)-1H-indol-7-yl]propanamide] | 1.4 | 0.53
CN(C)Cc1cccc(C(CN)C(=O)Nc2cccc3c(-c4cn[nH]c4)c[nH]c23)c1 (racemic) [Example 78, 3-amino-2-{3-[(dimethylamino)methyl]phenyl}-N-[3-(1H-pyrazol-4-yl)-1H-indol-7-yl]propanamide] | 34 | 16
CN1CCN(C(C(=O)Nc2cccc3c(-c4cn[nH]c4)c[nH]c23)c2ccccc2)CC1 (single isomer, unassigned) [Example 47, N-(3-(1H-pyrazol-4-yl)-1H-indol-7-yl)-2-(4-methylpiperazin-1-yl)-2-phenylacetamide] | 201 | 121
NCC(C(=O)Nc1cccc2c(-c3cn[nH]c3)c[nH]c12)C1CCOC1 (racemic) [Example 94, N-(3-(1H-pyrazol-4-yl)-1H-indol-7-yl)-3-amino-2-(tetrahydrofuran-3-yl)propanamide] | 6.5 | 3

SMILES | IC50 (Recombinant ROCK1) [nM] | IC50 (Recombinant ROCK2) [nM]
NCC(C(=O)Nc1cccc2c(-c3cn[nH]c3)c[nH]c12)c1ccc(C(N)=O)cc1 (single isomer, unassigned) [Example 112, 4-(1-((3-(1H-pyrazol-4-yl)-1H-indol-7-yl)amino)-3-amino-1-oxopropan-2-yl)benzamide] | 1.3 | 0.47
NC[C@H](Cc1ccccc1)C(=O)Nc1cccc2c(-c3cn[nH]c3)c[nH]c12 [Example 54, (2S)-3-amino-2-benzyl-N-[3-(1H-pyrazol-4-yl)-1H-indol-7-yl]propanamide] | 0.18 | 0.09
NCC(C(=O)Nc1cccc2c(-c3cn[nH]c3)c[nH]c12)c1cccc(O)c1 (single isomer, unassigned) [Example 64, N-(3-(1H-pyrazol-4-yl)-1H-indol-7-yl)-3-amino-2-(3-hydroxyphenyl)propanamide] | 0.37 | 0.19
COc1ccc(C(N)C(=O)Nc2cccc3c(-c4cn[nH]c4)c[nH]c23)cc1 (racemic) [Example 104, 2-amino-2-(4-methoxyphenyl)-N-[3-(1H-pyrazol-4-yl)-1H-indol-7-yl]acetamide] | 2 | 0.9
COc1cccc([C@@H](C(=O)Nc2cccc3c(-c4cn[nH]c4)c[nH]c23)C2CCN(C)CC2)c1 (single isomer, unassigned) [Example 29, N-(3-(1H-pyrazol-4-yl)-1H-indol-7-yl)-2-(3-methoxyphenyl)-2-(1-methylpiperidin-4-yl) acetamide] | 59 | 23
COc1cccc([C@H](C(=O)Nc2cccc3c(-c4cn[nH]c4)c[nH]c23)C2CCN(C)CC2)c1 (single isomer, unassigned) [Example 30, N-(3-(1H-pyrazol-4-yl)-1H-indol-7-yl)-2-(3-methoxyphenyl)-2-(1-methylpiperidin-4-yl) acetamide] | 3.2 | 1.1
NCc1ccc(C(CN)C(=O)Nc2cccc3c(-c4cn[nH]c4)c[nH]c23)cc1 (racemic) [Example 77, 3-amino-2-[4-(aminomethyl)phenyl]-N-[3-(1H-pyrazol-4-yl)-1H-indol-7-yl]propanamide] | 84 | 32
COc1cccc(C(CN)C(=O)Nc2cccc3c(-c4cn[nH]c4)c[nH]c23)c1 (racemic) [Example 16, N-(3-(1H-pyrazol-4-yl)-1H-indol-7-yl)-3-amino-2-(3-methoxyphenyl)propanamide] | 0.84 | 0.37
COc1cc(OC)cc(C(N)C(=O)Nc2cccc3c(-c4cn[nH]c4)c[nH]c23)c1 (racemic) [Example 83, 2-amino-2-(3,5-dimethoxyphenyl)-N-[3-(1H-pyrazol-4-yl)-1H-indol-7-yl]acetamide] | 7.3 | 3.1
COc1ccccc1C(CN)C(=O)Nc1cccc2c(-c3cn[nH]c3)c[nH]c12 (racemic) [Example 84, 3-amino-2-(2-methoxyphenyl)-N-[3-(1H-pyrazol-4-yl)-1H-indol-7-yl]propanamide] | 1.3 | 0.96
COc1ccc(C(CN)NC(=O)c2cccc3c(-c4cn[nH]c4)c[nH]c23)cc1 (single isomer, unassigned) [Example 144, N-(2-amino-1-(4-methoxyphenyl)ethyl)-3-(1H-pyrazol-4-yl)-1H-indole-7-carboxamide] | 60 | 32
N#Cc1ccc(C(CN)C(=O)Nc2cccc3c(-c4cn[nH]c4)c[nH]c23)cc1 (racemic) [Example 86, 3-amino-2-(4-cyanophenyl)-N-[3-(1H-pyrazol-4-yl)-1H-indol-7-yl]propanamide] | 2.7 | 0.98
CC(=O)Nc1ccc(C(CN)C(=O)Nc2cccc3c(-c4cnn(C(=O)OC(C)(C)C)c4)c[nH]c23)cc1 (racemic) [Example 92, tert-butyl 4-{7-[3-amino-2-(4-acetamidophenyl)propanamido]-1H-indol-3-yl}pyrazole-1-carboxylate] | 16 | 6
CNC(=O)c1ccc(C(CN)C(=O)Nc2cccc3c(-c4cn[nH]c4)c[nH]c23)cc1 (racemic) [Example 73, 4-(2-amino-1-{[3-(1H-pyrazol-4-yl)-1H-indol-7-yl]carbamoyl}ethyl)-N-methylbenzamide] | 82 | 20
NCC(C(=O)Nc1cccc2c(-c3cn[nH]c3)c[nH]c12)c1ccc(CO)cc1 (racemic) [Example 1, N-(3-(1H-pyrazol-4-yl)-1H-indol-7-yl)-3-amino-2-(4-(hydroxymethyl)phenyl)propanamide] | 0.59 | 0.27
N[C@@H](C(=O)Nc1cccc2c(-c3cn[nH]c3)c[nH]c12)c1cccnc1 (single isomer, unassigned) [Example 131, N-(3-(1H-pyrazol-4-yl)-1H-indol-7-yl)-2-amino-2-(pyridin-3-yl) acetamide] | 22 | 12
